# Earlier results, collected in patent publication US20030091531A1, “Method and composition for insect and animal control” (priority 2001, published 2003).
# Experiments:
# [1] = unstabilised active; degrades rapidly under ultraviolet light, water, oxygen and soil microbes
# [2] = classified by the EPA
Compound,shelf life [1],EPA carcinogen classification [2]
CCCCCCCCCC(C)=O [methyl nonyl ketone],twelve,–
"CNC(=O)CSP(=S)(OC)OC [Dimethoate, dimethoate]",–,group 3 carcinogen
